Converted amounts (≈) assume the structure as drawn. Read-outs that look alike come from different tables or passages of the source.
Assays:
[1] = tested on: B. subtilis (ATCC 9372); experiment: Broth microdilution assay, MIC; format: cell-based; conditions: Bacillus subtilis, ATCC9372, read-out: Minimum Inhibitory Concentration
[2] = tested on: P. aeruginosa (ATCC 29853); experiment: Broth microdilution assay, MIC/MBC; format: cell-based; conditions: for ratio (MBC/MIC): P. aeruginosa (ATCC 29853); for MBC / MIC: Pseudomonas aeruginosa; for bactericidal or bacteriostatic effect / fold more efficient than amoxicillin: P. aeruginosa; for bactericidal or bacteriostatic effect: MBC/MIC ≤ 4 = bactericidal; for fold more efficient than amoxicillin: from MICs
[3] = tested on: M. tuberculosis (RCMB 010126); experiment: Microplate alamar blue assay; format: cell-based, Mycobacterium tuberculosis; conditions: Mycobacterium tuberculosis, RCMB010126, sensitive Mycobacterium tuberculosis (RCMB 010126), MABA
[4] = tested on: S. aureus (ATCC 25923); experiment: Broth microdilution assay, MIC; format: cell-based; conditions: Staphylococcus aureus, ATCC25923, read-out: Minimum Inhibitory Concentration
[5] = tested on: E. coli (ATCC25922); experiment: Broth microdilution assay, MIC; format: cell-based; conditions: Escherichia coli, ATCC25922, read-out: Minimum Inhibitory Concentration
[6] = tested on: C. albicans (ATCC 10231); experiment: Broth microdilution assay, antifungal MIC/MFC; format: cell-based, Candida albicans; conditions: for ratio (MFC/MIC): C. albicans (ATCC 10231); for MFC / MIC: Candida albicans; for fungicidal or fungistatic behavior: C. albicans, MFC/MIC > 4 = fungistatic
[7] = ATCC29853, read-out: Minimum Inhibitory Concentration
[8] = ATCC10231, read-out: Minimum Inhibitory Concentration

## COc1ccc(OC)c(C2CC(c3cccs3)=NN2C(N)=S)c1 (centres unmarked) [2b, 4,5-Dihydro-5-(2,5-dimethoxyphenyl)-3-(thiophen-2-yl)pyrazole-1-carbothioamide]
[1]
  MIC: 125 µg/mL (≈ 360 µM)
[2]
  ratio (MBC/MIC): 8
[2]; ATCC29853
  MBC: 500 µg/mL (≈ 1440 µM)
  MIC: 62.2 µg/mL (≈ 179 µM)
[2]; [7]
  MIC: 62.2 µg/mL (≈ 179 µM)
[3]
  MIC: 15.6 µg/mL (≈ 44.9 µM)
[4]
  MIC: 250 µg/mL (≈ 719 µM)
[5]
  MIC: 62.5 µg/mL (≈ 180 µM)
[6]
  ratio (MFC/MIC): 4
[6]; ATCC10231
  MFC: 250 µg/mL (≈ 719 µM)
  MIC: 62.5 µg/mL (≈ 180 µM)
[6]; [8]
  MIC: 62.5 µg/mL (≈ 180 µM)

## COc1ccc(OC)c(C=C2SC(N3N=C(c4cccs4)CC3c3cc(OC)ccc3OC)=NC2=O)c1 (centres unmarked) [8d, 5-(2,5-Dimethoxybenzylidene)-2-(4,5-dihydro-5-(2,5-dimethoxyphenyl)-3-(thiophen-2-yl)pyrazol-1-yl)thiazol-4(5H)-one]
[1]
  MIC: 125 µg/mL (≈ 233 µM)
[2]
  ratio (MBC/MIC): 2
  bactericidal or bacteriostatic effect: bactericidal
[2]; ATCC29853
  MBC: 125 µg/mL (≈ 233 µM)
  MIC: 62.2 µg/mL (≈ 116 µM)
[2]; [7]
  MIC: 62.2 µg/mL (≈ 116 µM)
[3]
  MIC: 31.2 µg/mL (≈ 58.3 µM)
[4]
  MIC: 62.5 µg/mL (≈ 117 µM)
[5]
  MIC: 125 µg/mL (≈ 233 µM)
[6]
  ratio (MFC/MIC): 2
[6]; ATCC10231
  MFC: 125 µg/mL (≈ 233 µM)
  MIC: 62.5 µg/mL (≈ 117 µM)
[6]; [8]
  MIC: 62.5 µg/mL (≈ 117 µM)

## O=C1N=C(N2N=C(c3cccs3)CC2c2cccs2)SC1=C1C(=O)Nc2ccccc21 (centres unmarked) [9a, 3-(2-(4,5-Dihydro-3,5-di(thiophen-2-yl)pyrazol-1-yl)-4-oxothiazol-5(4H)-ylidene)indolin-2-one]
[1]
  MIC: 125 µg/mL (≈ 270 µM)
[2]
  ratio (MBC/MIC): 2
  fold more efficient than amoxicillin: ~16 fold
  bactericidal or bacteriostatic effect: bactericidal
[2]; ATCC29853
  MBC: 62.2 µg/mL (≈ 135 µM)
  MIC: 31.2 µg/mL (≈ 67.6 µM)
[2]; [7]
  MIC: 31.2 µg/mL (≈ 67.6 µM)
[3]
  MIC: 15.6 µg/mL (≈ 33.7 µM)
[4]
  MIC: 62.5 µg/mL (≈ 135 µM)
[5]
  MIC: 125 µg/mL (≈ 270 µM)
[6]
  ratio (MFC/MIC): 2
[6]; ATCC10231
  MFC: 250 µg/mL (≈ 540 µM)
  MIC: 125 µg/mL (≈ 270 µM)
[6]; [8]
  MIC: 125 µg/mL (≈ 270 µM)

## COc1ccc(OC)c(C2CC(c3cccs3)=NN2c2nc(-c3ccccc3)cs2)c1 (centres unmarked) [4b, 4,5-Dihydro-5-(2,5-dimethoxyphenyl)-1-(4-phenylthiazol-2-yl)-3-(thiophen-2-yl)-1H-pyrazole]
[1]
  MIC: 250 µg/mL (≈ 559 µM)
[2]
  ratio (MBC/MIC): 16
  fold more efficient than amoxicillin: approximately 32 fold
[2]; ATCC29853
  MBC: 250 µg/mL (≈ 559 µM)
  MIC: 15.6 µg/mL (≈ 34.9 µM)
[2]; [7]
  MIC: 15.6 µg/mL (≈ 34.9 µM)
[3]
  MIC: 31.2 µg/mL (≈ 69.8 µM)
[4]
  MIC: 250 µg/mL (≈ 559 µM)
[5]
  MIC: 125 µg/mL (≈ 279 µM)
[6]
  ratio (MFC/MIC): 8
  fungicidal or fungistatic behavior: fungistatic
[6]; ATCC10231
  MFC: 500 µg/mL (≈ 1120 µM)
  MIC: 62.5 µg/mL (≈ 140 µM)
[6]; [8]
  MIC: 62.5 µg/mL (≈ 140 µM)

## Cc1csc(N2N=C(c3cccs3)CC2c2cccs2)n1 (centres unmarked) [3a, 4,5-Dihydro-1-(4-methylthiazol-2-yl)-3,5-di(thiophen-2-yl)-1H-pyrazole]
[1]
  MIC: 62.5 µg/mL (≈ 189 µM)
[2]
  ratio (MBC/MIC): >1
[2]; ATCC29853
  MBC: > 500 µg/mL
  MIC: > 500 µg/mL
[2]; [7]
  MIC: > 500 µg/mL
[3]
  MIC: 62.5 µg/mL (≈ 189 µM)
[4]
  MIC: 250 µg/mL (≈ 754 µM)
[5]
  MIC: 500 µg/mL (≈ 1510 µM)
[6]
  ratio (MFC/MIC): >4
  fungicidal or fungistatic behavior: fungistatic
[6]; ATCC10231
  MFC: > 500 µg/mL
  MIC: 125 µg/mL (≈ 377 µM)
[6]; [8]
  MIC: 125 µg/mL (≈ 377 µM)

## COc1ccc(OC)c(C=C2SC(N3N=C(c4cccs4)CC3c3cccs3)=NC2=O)c1 (centres unmarked) [8c, 5-(2,5-Dimethoxybenzylidene)-2-(4,5-dihydro-3,5-di(thiophen-2-yl)pyrazol-1-yl)thiazol-4(5H)-one]
[1]
  MIC: 125 µg/mL (≈ 260 µM)
[2]
  ratio (MBC/MIC): 8
  fold more efficient than amoxicillin: ~16 fold
[2]; ATCC29853
  MBC: 250 µg/mL (≈ 519 µM)
  MIC: 31.2 µg/mL (≈ 64.9 µM)
[2]; [7]
  MIC: 31.2 µg/mL (≈ 64.9 µM)
[3]
  MIC: 7.81 µg/mL (≈ 16.2 µM)
[4]
  MIC: 62.5 µg/mL (≈ 130 µM)
[5]
  MIC: 125 µg/mL (≈ 260 µM)
[6]
  ratio (MFC/MIC): 2
[6]; ATCC10231
  MFC: 62.2 µg/mL (≈ 129 µM)
  MIC: 31.2 µg/mL (≈ 64.9 µM)
[6]; [8]
  MIC: 31.2 µg/mL (≈ 64.9 µM)

## O=C1CCSC(N2N=C(c3cccs3)CC2c2cccs2)=N1 (centres unmarked) [10a, 5,6-Dihydro-2-(4,5-dihydro-3,5-di(thiophen-2-yl)pyrazol-1-yl)-1,3-thiazin-4-one]
[1]
  MIC: 62.5 µg/mL (≈ 180 µM)
[2]
  ratio (MBC/MIC): 4
  fold more efficient than amoxicillin: ~16 fold
  bactericidal or bacteriostatic effect: bactericidal
[2]; ATCC29853
  MBC: 125 µg/mL (≈ 360 µM)
  MIC: 31.2 µg/mL (≈ 89.9 µM)
[2]; [7]
  MIC: 31.2 µg/mL (≈ 89.9 µM)
[3]
  MIC: 31.2 µg/mL (≈ 89.9 µM)
[4]
  MIC: 125 µg/mL (≈ 360 µM)
[5]
  MIC: 125 µg/mL (≈ 360 µM)
[6]
  ratio (MFC/MIC): 4
[6]; ATCC10231
  MFC: 250 µg/mL (≈ 719 µM)
  MIC: 62.5 µg/mL (≈ 180 µM)
[6]; [8]
  MIC: 62.5 µg/mL (≈ 180 µM)

## COc1ccc(OC)c(C2CC(c3cccs3)=NN2c2nc(C)cs2)c1 (centres unmarked) [3b, 4,5-Dihydro-5-(2,5-dimethoxyphenyl)-1-(4-methylthiazol-2-yl)-3-(thiophen-2-yl)-1H-pyrazole]
[1]
  MIC: 125 µg/mL (≈ 324 µM)
[2]
  ratio (MBC/MIC): 8
  fold more efficient than amoxicillin: approximately 32 fold
[2]; ATCC29853
  MBC: 125 µg/mL (≈ 324 µM)
  MIC: 15.6 µg/mL (≈ 40.5 µM)
[2]; [7]
  MIC: 15.6 µg/mL (≈ 40.5 µM)
[3]
  MIC: 7.81 µg/mL (≈ 20.3 µM)
[4]
  MIC: 250 µg/mL (≈ 648 µM)
[5]
  MIC: 125 µg/mL (≈ 324 µM)
[6]
  ratio (MFC/MIC): 8
  fungicidal or fungistatic behavior: fungistatic
[6]; ATCC10231
  MFC: 250 µg/mL (≈ 648 µM)
  MIC: 31.2 µg/mL (≈ 81.1 µM)
[6]; [8]
  MIC: 31.2 µg/mL (≈ 81.1 µM)

## O=C1CSC(N2N=C(c3cccs3)CC2c2cccs2)=N1 (centres unmarked) [6a, 2-(4,5-Dihydro-3,5-di(thiophen-2-yl)pyrazol-1-yl)thiazol-4(5H)-one]
[1]
  MIC: 125 µg/mL (≈ 375 µM)
[2]
  ratio (MBC/MIC): 4
  bactericidal or bacteriostatic effect: bactericidal
[2]; ATCC29853
  MBC: 250 µg/mL (≈ 750 µM)
  MIC: 62.5 µg/mL (≈ 187 µM)
[2]; [7]
  MIC: 62.5 µg/mL (≈ 187 µM)
[3]
  MIC: 31.2 µg/mL (≈ 93.7 µM)
[4]
  MIC: 250 µg/mL (≈ 750 µM)
[5]
  MIC: 125 µg/mL (≈ 375 µM)
[6]
  ratio (MFC/MIC): 4
[6]; ATCC10231
  MFC: 250 µg/mL (≈ 750 µM)
  MIC: 62.5 µg/mL (≈ 187 µM)
[6]; [8]
  MIC: 62.5 µg/mL (≈ 187 µM)

## COc1ccc(OC)c(C2CC(c3cccs3)=NN2C2=NC(=O)C(C)S2)c1 (centres unmarked) [7b, 2-(4,5-Dihydro-5-(2,5-dimethoxyphenyl)-3-(thiophen-2-yl)pyrazol-1-yl)-5-methylthiazol-4(5H)-one]
[1]
  MIC: 125 µg/mL (≈ 311 µM)
[2]
  ratio (MBC/MIC): 2
  bactericidal or bacteriostatic effect: bactericidal
[2]; ATCC29853
  MBC: 250 µg/mL (≈ 623 µM)
  MIC: 125 µg/mL (≈ 311 µM)
[2]; [7]
  MIC: 125 µg/mL (≈ 311 µM)
[3]
  MIC: 62.5 µg/mL (≈ 156 µM)
[4]
  MIC: 250 µg/mL (≈ 623 µM)
[5]
  MIC: 125 µg/mL (≈ 311 µM)
[6]
  ratio (MFC/MIC): 8
  fungicidal or fungistatic behavior: fungistatic
[6]; ATCC10231
  MFC: 500 µg/mL (≈ 1250 µM)
  MIC: 62.5 µg/mL (≈ 156 µM)
[6]; [8]
  MIC: 62.5 µg/mL (≈ 156 µM)

## CC1SC(N2N=C(c3cccs3)CC2c2cccs2)=NC1=O (centres unmarked) [7a, 2-(4,5-Dihydro-3,5-di(thiophen-2-yl)pyrazol-1-yl)-5-methylthiazol-4(5H)-one]
[1]
  MIC: 125 µg/mL (≈ 360 µM)
[2]
  ratio (MBC/MIC): >1
[2]; ATCC29853
  MBC: > 500 µg/mL
  MIC: > 500 µg/mL
[2]; [7]
  MIC: > 500 µg/mL
[3]
  MIC: 62.5 µg/mL (≈ 180 µM)
[4]
  MIC: > 500 µg/mL
[5]
  MIC: 125 µg/mL (≈ 360 µM)
[6]
  ratio (MFC/MIC): 4
[6]; ATCC10231
  MFC: 250 µg/mL (≈ 719 µM)
  MIC: 62.5 µg/mL (≈ 180 µM)
[6]; [8]
  MIC: 62.5 µg/mL (≈ 180 µM)

— paper PMC10600881 (ACS Omega, 2023)
